{"source": "patent US10383819B1", "about": "“Method to effect biphasic bioavailability of oral euphoric psychogenic cannabinoids” (Callitas Therapeutics, Inc., priority 2018, dated 2019)", "key": {"Respiratory depression": {"assay": "Respiratory depression", "settings": "in vivo", "protocol": "The biphasic THC bioavailability, rapid oral absorption of THC, and the delayed, subsequent conversion of THC into 11-OH THC, provide both an immediate euphoric state and an extended euphoric state, 12-18 hours, that could provide a safe drug alternative to opioids. Opioids cause respiratory depression and overdose deaths from respiratory depression relative to opioid dose. This is the rationale of the second reference, and the reason that Massachusetts prioritized recreational cannabis dispensary licenses to areas of high opioid overdose deaths."}, "[1]": {"settings": "cited from earlier work"}, "[2]": {"assay": "Menthol/1-arginine enhanced oral mucous membrane absorption of THC and euphoric effect", "protocol": "FIG. 1 of Human Cannabinoid Pharmacokinetics, by Marilyn A. Huestis, (www.pubmed.gov/17712819) published as Chem Biodivers. 2007 August: 4(8): 1770-1804. […] This is with 8 inhalations over 10 minutes, in 6 patients. […] The method entails maintaining the menthol/1-arginine/THC coated edible THC in the oral cavity for about 10 minutes before chewing the edible."}, "[3]": {"settings": "cited from earlier work", "remark": "listed apart in the source"}, "[4]": {"settings": "menthol/1-arginine enhanced, oral cavity"}}}
{"molecule": "Cannabis", "values": [{"measurement": "respiratory depression", "setting": "Respiratory depression", "value": "do not cause respiratory depression"}]}
{"molecule": "CCCCCc1cc(O)c2c(c1)OC(C)(C)[C@@H]1CCC(CO)=C[C@@H]21", "note": "[11-OH THC, 11-hydroxy tetrahydrocannabinol]", "values": [{"measurement": "respiratory depression", "setting": "Respiratory depression", "value": "do not cause respiratory depression"}, {"measurement": "maximum effect (plasma concentration)", "setting": "[1]; 6 hours after ingestion", "value": 110, "unit": "micrograms/ml"}, {"measurement": "area under the curve (AUC) of plasma concentration relative to THC", "setting": "[1]; after ingestion of THC", "value": "triple"}, {"measurement": "duration of plasma concentration", "setting": "[1]; after ingestion of THC", "value": "over 24 hours"}, {"measurement": "plasma concentration at peak effect relative to the peak THC plasma concentration", "setting": "[1]; after ingestion of THC", "value": "double"}, {"measurement": "time after ingestion up to which an effect is produced", "setting": "[1]; after ingestion of THC", "value": "up to 15 hours"}, {"measurement": "time of maximum effect after ingestion", "setting": "[1]; after ingestion of THC", "value": 6, "unit": "h"}]}
{"molecule": "CCCCCc1cc(O)c2c(c1)OC(C)(C)[C@@H]1CCC(C)=C[C@@H]21", "note": "[THC, delta-9 tetrahydrocannabinol]", "values": [{"measurement": "oral mucous membrane absorption of THC relative to the efficacy of smoked/inhaled THC", "setting": "[2]; [4]", "value": "about 70%"}, {"measurement": "window in which oral mucous membrane absorption occurs", "setting": "[2]; [4]", "value": "10 to 15", "unit": "min"}, {"measurement": "duration of euphoric effect", "setting": "[2]; orally absorbed THC, depending upon THC dosage", "value": "4 to 8", "unit": "h"}, {"measurement": "respiratory depression", "setting": "Respiratory depression", "value": "do not cause respiratory depression"}, {"measurement": "metabolism of inhaled or smoked THC into 11-OH THC", "setting": "[3]; inhaled or smoked", "value": "not metabolized into 11-OH THC"}, {"measurement": "rise of plasma THC", "setting": "[3]; smoking 3.55% THC cannabis, 8 inhalations over 10 minutes, 6 patients, from 0 in 10 minutes", "value": 150, "unit": "micrograms/ml"}, {"measurement": "duration of plasma concentration", "setting": "[1]; after ingestion of THC", "value": 12, "unit": "h"}]}
